Measured values from patent EP4740948A1 (Dong Wha Pharm. Co., Ltd., priority 2023, dated 2025).

How the values were obtained:
Assay type in all cases: cell-based
MIA-PaCa-2 cells = experiment: Cancer cell proliferation inhibition (Cell Counting Kit-8), pancreatic cancer cell line; conditions: 1000 nM, cultured seven to 11 days
Procedure: (§1) In addition, as one example of solid cancer in which an overexpression of EZH2 and a consequent disease association therebetween is reported, a proliferation inhibitory activity of the 1,3-benzodioxole derivative compounds represented by chemical formula I of the present invention was evaluated in Lovo cells as a colorectal cancer cell line, SW-13 cells as an adrenal cancer cell line, MIA-PaCa-2 cells as a pancreatic cancer cell line, and NCI-H1299 cells as a lung cancer cell line.
(§2) Each cell line (G401 cell, MKN-45 cell, Lovo cell, SW-13 cell, MIA-PaCa-2, NCI-H1299) of Table 2 below was cultured using RPMI1640, McCoy's 5a, L-15 or DMEM containing 10% fetal bovine serum, and the cells were seeded into wells of a 96-well culture dish at 100 to 1,000 cells each, and a test substance 1000 nM was cultured for seven to 11 days after drug treatment. After the culture, the cells were measured according to a manufacturer's instructions using Cell Counting Kit-8, and a cell proliferation inhibitory effect (% inhibition rate) of the test substance was obtained.
(§3) The cell proliferation inhibitory effect (% inhibition rate) of the test substance was calculated using a following equation. % inhibition rate = {1−(testgroup/controlgroup)} X 100 [formula]

Lovo cells = experiment: Cancer cell proliferation inhibition (Cell Counting Kit-8), colorectal cancer cell line; conditions: 1000 nM, cultured seven to 11 days
Procedure: as §1, §2, §3

NCI-H1299 cells = experiment: Cancer cell proliferation inhibition (Cell Counting Kit-8), lung cancer cell line; conditions: 1000 nM, cultured seven to 11 days
Procedure: as §1, §2, §3

SW-13 cells = experiment: Cancer cell proliferation inhibition (Cell Counting Kit-8), adrenal cancer cell line; conditions: 1000 nM, cultured seven to 11 days
Procedure: as §1, §2, §3

MKN-45 cells = experiment: Cancer cell proliferation inhibition (Cell Counting Kit-8), gastric cancer cell line; conditions: 1000 nM, cultured seven to 11 days
Text: (§4) Among solid cancer cells, in G401 cells in which expression of SMARCB1, which is a member of switch/sucrosenon-fermenting (SWI/SNF), is defective as a cell line of a rhabdoid tumor in which a therapeutic effect may be expected through dual inhibition of EZH1/2, and MKN-45 cells in which expression of ARID1A, which is a member of SWI/SNF, is defective as a gastric cancer cell line, a proliferation inhibitory ability of the 1,3-benzodioxole derivative compounds represented by chemical formula I of the present invention was evaluated.
as §2, §3

G401 cells = experiment: Cancer cell proliferation inhibition (Cell Counting Kit-8), rhabdoid tumor cell line; conditions: 1000 nM, cultured seven to 11 days; for % inhibition rate G401: 1 µM
Text: as §4, §2, §3

Structure (SMILES)	% inhibition rate MIA-Paca2 (MIA-PaCa-2 cells)	% inhibition rate LoVo (Lovo cells; 1 µM)	% inhibition rate NCI-H129 9 (NCI-H1299 cells)	% inhibition rate SW-13 (SW-13 cells)	% inhibition rate MKN -45 (MKN-45 cells; 1 µM)	% inhibition rate G401 (G401 cells)	% inhibition rate SW-13 (SW-13 cells; 1 µM)	% inhibition rate MKN -45 (MKN-45 cells)	% inhibition rate LoVo (Lovo cells)	% inhibition rate NCI-H129 9 (NCI-H1299 cells; 1 µM)	% inhibition rate MIA-Paca2 (MIA-PaCa-2 cells; 1 µM)	inhibition at 1 µM (MIA-PaCa-2 cells; Homo sapiens, MIA PaCa-2, 264 h, read-out: % inhibition rate MIA-Paca2) [%]	inhibition at 1 µM (Lovo cells; Homo sapiens, LoVo, 264 h, read-out: % inhibition rate LoVo) [%]	inhibition at 1 µM (NCI-H1299 cells; Homo sapiens, NCI-H1299, 264 h, read-out: % inhibition rate NCI-H129 9) [%]	inhibition at 1 µM (SW-13 cells; Homo sapiens, SW13, 264 h, read-out: % inhibition rate SW-13) [%]	inhibition at 1 µM (MKN-45 cells; Homo sapiens, MKN-45, 264 h, read-out: % inhibition rate MKN -45) [%]	inhibition at 1 µM (G401 cells; Homo sapiens, G-401, 264 h, read-out: % inhibition rate G401) [%]
CSc1cc(C)[nH]c(=O)c1CNC(=O)c1cc(-c2ccc(N3C[C@@H](C)O[C@@H](C)C3)nc2)c2c(c1C)OC(C)(C1CCN(CC(F)(F)F)CC1)O2 (single isomer, unassigned) [Compound 45]	+ (+: ≤30%)	++ (++: more than 30% and less than 70%)	++ (++: more than 30% and less than 70%)	++ (++: more than 30% and less than 70%)	+ (+: ≤30%)	+ (+: ≤30%)	–	–	–	–	–	–	–	–	–	–	–
CSc1cc(C)[nH]c(=O)c1CNC(=O)c1cc(-c2ccc(N3CCOCC3)nc2)c2c(c1C)OC(C)(C1CCN(CC(F)F)CC1)O2 (single isomer, unassigned) [Compound 65, 2-(1-(2,2-difluoroethyl)piperidin-4-yl)-2,4-dimethyl-N-((6-methyl-4-(methylthio)-2-oxo-1,2-dihydropyridin-3-yl)methyl)-7-(6-morpholinopyridin-3-yl)benzo[d][1,3]dioxole-5-carboxamide]	+ (+: ≤30%)	++ (++: more than 30% and less than 70%)	+ (+: ≤30%)	–	–	+ (+: ≤30%)	+ (+: ≤30%)	++ (++: more than 30% and less than 70%)	–	–	–	–	–	–	–	–	–
CCN(C)c1ccc(-c2cc(C(=O)NCc3c(SC)cc(C)[nH]c3=O)c(C)c3c2OC(C)(C2CCN(CC(F)(F)F)CC2)O3)cn1 (single isomer, unassigned) [Compound 87, 7-(6-(ethyl(methyl)amino)pyridin-3-yl)-2,4-dimethyl-N-((6-methyl-4-(methylthio)-2-oxo-1,2-dihydropyridin-3-yl)methyl)-2-(1-(2,2,2-trifluoroethyl)piperidin-4-yl)benzo[d][1,3]dioxole-5-carboxamide]	+ (+: ≤30%)	–	–	–	+ (+: ≤30%)	+ (+: ≤30%)	+ (+: ≤30%)	–	+++ (+++: ≥70%)	+ (+: ≤30%)	–	–	–	–	–	–	–
CSc1cc(C)[nH]c(=O)c1CNC(=O)c1cc(-c2ccc(N3C[C@@H](C)O[C@@H](C)C3)nc2)c2c(c1C)OC(C)(C1CCN(CC(F)F)CC1)O2 (single isomer, unassigned) [Compound 48]	+ (+: ≤30%)	–	++ (++: more than 30% and less than 70%)	–	+ (+: ≤30%)	+ (+: ≤30%)	+ (+: ≤30%)	–	+++ (+++: ≥70%)	–	–	–	–	–	–	–	–
CSc1cc(C)[nH]c(=O)c1CNC(=O)c1cc(-c2ccc(N3C[C@@H](C)O[C@@H](C)C3)nc2)c2c(c1C)OC(C)(C1CCN(CCc3ccccc3)CC1)O2 (single isomer, unassigned) [Compound 56]	+ (+: ≤30%)	–	–	–	+ (+: ≤30%)	++ (++: more than 30% and less than 70%)	+ (+: ≤30%)	–	+++ (+++: ≥70%)	+ (+: ≤30%)	–	–	–	–	–	–	–
CSc1cc(C)[nH]c(=O)c1CNC(=O)c1cc(-c2ccc(N3C[C@@H](C)O[C@@H](C)C3)nc2)c2c(c1C)OC(C)(C1CCN(CCCC(F)(F)F)CC1)O2 (single isomer, unassigned) [Compound 58]	–	++ (++: more than 30% and less than 70%)	–	–	+ (+: ≤30%)	+ (+: ≤30%)	+ (+: ≤30%)	–	–	+ (+: ≤30%)	+ (+: ≤30%)	–	–	–	–	–	–
CSc1cc(C)[nH]c(=O)c1CNC(=O)c1cc(-c2cnc(N3CCOCC3)nc2)c2c(c1C)OC(C)(C1CCN(CC(F)F)CC1)O2 (single isomer, unassigned) [Compound 72, 2-(1-(2,2-difluoroethyl)piperidin-4-yl)-2,4-dimethyl-N-((6-methyl-4-(methylthio)-2-oxo-1,2-dihydropyridin-3-yl)methyl)-7-(2-morpholinopyrimidin-5-yl)benzo[d][1,3]dioxole-5-carboxamide]	+ (+: ≤30%)	–	–	++ (++: more than 30% and less than 70%)	–	+ (+: ≤30%)	–	++ (++: more than 30% and less than 70%)	+++ (+++: ≥70%)	+ (+: ≤30%)	–	–	–	–	–	–	–
CSc1cc(C)[nH]c(=O)c1CNC(=O)c1cc(-c2ccc(N3CCOCC3)nc2)c2c(c1C)OC(C)(C1CCN(CC(F)(F)F)CC1)O2 (single isomer, unassigned) [Compound 63, 2,4-dimethyl-N-((6-methyl-4-(methylthio)-2-oxo-1,2-dihydropyridin-3-yl)methyl)-7-(6-morpholinopyridin-3-yl)-2-(1-(2,2,2-trifluoro)piperidin-4-yl)benzo[d][1,3]dioxole-5-carboxamide]	+ (+: ≤30%)	++ (++: more than 30% and less than 70%)	–	–	–	+ (+: ≤30%)	+ (+: ≤30%)	++ (++: more than 30% and less than 70%)	–	+ (+: ≤30%)	–	–	–	–	–	–	–
CCN1CCC(C2(C)Oc3c(-c4ccc(N5CCOCC5)nc4)cc(C(=O)NCc4c(SC)cc(C)[nH]c4=O)c(C)c3O2)CC1 (single isomer, unassigned) [Compound 67, 2-(1-ethylpiperidin-4-yl)-2,4-dimethyl-N-((6-methyl-4-(methylthio)-2-oxo-1,2-dihydropyridin-3-yl)methyl)-7-(6-morpholinopyridin-3-yl)benzo[d][1,3]dioxole-5-carboxamide]	+ (+: ≤30%)	+ (+: ≤30%)	+ (+: ≤30%)	+ (+: ≤30%)	+ (+: ≤30%)	+ (+: ≤30%)	–	–	–	–	–	–	–	–	–	–	–
CSc1cc(C)[nH]c(=O)c1CNC(=O)c1cc(-c2ccc(N3C[C@@H](C)O[C@@H](C)C3)nc2)c2c(c1C)OC(C)([C@H]1CC[C@H](N3CC(CC(F)(F)F)C3)CC1)O2 (stereo partly drawn) [Compound 102, 7-(6-((2S,6R)-2,6-dimethylmorpholino)pyridin-3-yl)-2,4-dimethyl-N-((6-methyl-4-(methylthio)-2-oxo-1,2-dihydropyridin-3-yl)methyl)-2-(trans-4-(3-(2,2,2-trifluoroethyl)azetidin-1-yl)cyclohexyl)benzo[d][1,3]dioxole-5-carboxamide]	–	–	–	–	–	–	–	–	–	–	–	≥ 70	≥ 70	≤ 30	≥ 70	30 to 70	30 to 70
CSc1cc(C)[nH]c(=O)c1CNC(=O)c1cc(-c2cnc(N3CCOCC3)nc2)c2c(c1C)OC(C)(C1CCN(CC(F)(F)F)CC1)O2 (single isomer, unassigned) [Compound 70, 2,4-dimethyl-N-((6-methyl-4-(methylthio)-2-oxo-1,2-dihydropyridin-3-yl)methyl)-7-(2-morpholinopyrimidine-5-yl)-2-(1-(2,2,2-trifluoro)piperidin-4-yl)benzo[d][1,3]dioxole-5-carboxamide]	+ (+: ≤30%)	–	+ (+: ≤30%)	–	–	+ (+: ≤30%)	+ (+: ≤30%)	++ (++: more than 30% and less than 70%)	+++ (+++: ≥70%)	–	–	–	–	–	–	–	–
